Assay results: patent US7355042B2, “Treatment of CNS disorders using CNS target modulators” (Hypnion, Inc., priority 2001, dated 2008)
Structures can show the parent of a compound that is named as a salt. Marks after values point to notes of the source that are not given here.

Experiments:
[1] = target: T1, human recombinant M1 muscarinic receptor expressed in CHO cells (Homo sapiens, UniProt P11229); settings: read-out: Ki of reference compounds, M1 binding assay; cited from earlier work
T1 construct: expressed in transfected cells; host or cells: CHO cells
T1 sequence (P11229 1-460): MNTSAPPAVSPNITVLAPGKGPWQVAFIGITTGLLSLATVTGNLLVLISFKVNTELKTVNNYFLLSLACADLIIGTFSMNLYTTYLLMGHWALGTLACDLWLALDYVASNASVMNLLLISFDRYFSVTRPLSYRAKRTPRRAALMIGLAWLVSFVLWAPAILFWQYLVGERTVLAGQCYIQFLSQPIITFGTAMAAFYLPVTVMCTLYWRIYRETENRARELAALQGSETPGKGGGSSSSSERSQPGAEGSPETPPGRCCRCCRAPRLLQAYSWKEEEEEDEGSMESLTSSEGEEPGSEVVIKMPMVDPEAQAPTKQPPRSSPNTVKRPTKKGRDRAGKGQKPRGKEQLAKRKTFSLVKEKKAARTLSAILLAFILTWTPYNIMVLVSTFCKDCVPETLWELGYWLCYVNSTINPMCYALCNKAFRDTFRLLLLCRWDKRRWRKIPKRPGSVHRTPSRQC

[2] = tested on: M3 receptor from guinea pig ileum membranes; settings: read-out: Ki of reference compounds, M3 binding assay; cited from earlier work
[3] = target: T2, M2 receptor from rat cardiac membranes (Rattus norvegicus, UniProt P10980); settings: read-out: Ki of reference compounds, M2 binding assay; cited from earlier work
T2 construct: the M2 receptor was from rat cardiac membranes; from tissue; host or cells: rat cardiac membranes
T2 sequence (P10980 1-466): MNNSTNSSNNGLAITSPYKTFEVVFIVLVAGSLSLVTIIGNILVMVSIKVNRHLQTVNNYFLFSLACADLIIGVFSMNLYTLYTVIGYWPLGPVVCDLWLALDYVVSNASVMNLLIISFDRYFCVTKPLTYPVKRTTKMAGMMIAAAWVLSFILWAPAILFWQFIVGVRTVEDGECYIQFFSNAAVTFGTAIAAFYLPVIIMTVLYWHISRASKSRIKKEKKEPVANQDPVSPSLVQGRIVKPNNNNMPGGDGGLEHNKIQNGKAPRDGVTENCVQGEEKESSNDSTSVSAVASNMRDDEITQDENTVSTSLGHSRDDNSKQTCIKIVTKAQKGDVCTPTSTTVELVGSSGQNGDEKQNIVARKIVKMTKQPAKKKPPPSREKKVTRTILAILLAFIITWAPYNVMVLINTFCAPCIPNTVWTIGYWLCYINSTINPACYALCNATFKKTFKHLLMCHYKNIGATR

male Wistar rats = assay: Sleep-wakefulness, locomotor activity and body temperature monitoring (SCORE-2000); format: in vivo, rat; settings: 30 mg/kg PO at CT-18
[4] = target: Norepinephrine Transporter (Homo sapiens, UniProt P23975); assay: Receptor selectivity binding comparison: Norepinephrine Transporter; settings: 1.0E−6
Histamine, H2 = Histamine, H2 (Homo sapiens, UniProt P25021); assay: Receptor selectivity binding comparison: Histamine H2; settings: 1.0E−6
[5] = target: T1, human recombinant M1 muscarinic receptor expressed in CHO cells; assay: M1 binding assay (human recombinant), [3H]-scopolamine N-methyl chloride; settings: 1.0E−6
[6] = target: cloned hERG channels expressed in HEK293 cells (Homo sapiens, UniProt Q12809); assay: hERG block comparative study, whole cell recording; settings: table title 1.0E−6
[7] = target: T3, human recombinant M2 muscarinic receptor expressed in CHO cells (Homo sapiens, UniProt P08172); assay: M2 binding assay (human recombinant); settings: 1.0E−6
T3 construct: expressed in transfected cells; host or cells: CHO cells
T3 sequence (P08172 1-466): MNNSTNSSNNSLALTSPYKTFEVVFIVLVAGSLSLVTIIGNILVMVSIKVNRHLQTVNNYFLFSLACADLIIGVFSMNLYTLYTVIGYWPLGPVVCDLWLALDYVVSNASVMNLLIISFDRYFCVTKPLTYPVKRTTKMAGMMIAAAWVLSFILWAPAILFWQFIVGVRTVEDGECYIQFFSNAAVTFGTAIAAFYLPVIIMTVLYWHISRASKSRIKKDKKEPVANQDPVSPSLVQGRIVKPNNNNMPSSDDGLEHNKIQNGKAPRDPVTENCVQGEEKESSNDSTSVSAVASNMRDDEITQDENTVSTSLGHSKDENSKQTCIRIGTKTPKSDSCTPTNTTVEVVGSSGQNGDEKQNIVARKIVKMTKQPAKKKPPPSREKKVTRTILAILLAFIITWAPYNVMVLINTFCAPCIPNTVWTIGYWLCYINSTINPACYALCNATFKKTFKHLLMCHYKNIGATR

Histamine, H2, sequence (P25021 whole entry): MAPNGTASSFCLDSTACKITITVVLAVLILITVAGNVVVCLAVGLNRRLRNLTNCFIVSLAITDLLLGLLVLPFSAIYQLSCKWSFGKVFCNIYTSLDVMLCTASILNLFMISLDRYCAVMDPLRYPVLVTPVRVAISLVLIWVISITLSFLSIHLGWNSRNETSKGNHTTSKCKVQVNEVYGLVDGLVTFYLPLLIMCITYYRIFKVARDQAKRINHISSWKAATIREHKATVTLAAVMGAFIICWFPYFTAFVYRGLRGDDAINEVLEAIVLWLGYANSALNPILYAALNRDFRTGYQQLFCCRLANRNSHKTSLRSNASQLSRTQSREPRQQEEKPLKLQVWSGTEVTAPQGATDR
cloned hERG channels expressed in HEK293 cells, sequence (Q12809 whole entry): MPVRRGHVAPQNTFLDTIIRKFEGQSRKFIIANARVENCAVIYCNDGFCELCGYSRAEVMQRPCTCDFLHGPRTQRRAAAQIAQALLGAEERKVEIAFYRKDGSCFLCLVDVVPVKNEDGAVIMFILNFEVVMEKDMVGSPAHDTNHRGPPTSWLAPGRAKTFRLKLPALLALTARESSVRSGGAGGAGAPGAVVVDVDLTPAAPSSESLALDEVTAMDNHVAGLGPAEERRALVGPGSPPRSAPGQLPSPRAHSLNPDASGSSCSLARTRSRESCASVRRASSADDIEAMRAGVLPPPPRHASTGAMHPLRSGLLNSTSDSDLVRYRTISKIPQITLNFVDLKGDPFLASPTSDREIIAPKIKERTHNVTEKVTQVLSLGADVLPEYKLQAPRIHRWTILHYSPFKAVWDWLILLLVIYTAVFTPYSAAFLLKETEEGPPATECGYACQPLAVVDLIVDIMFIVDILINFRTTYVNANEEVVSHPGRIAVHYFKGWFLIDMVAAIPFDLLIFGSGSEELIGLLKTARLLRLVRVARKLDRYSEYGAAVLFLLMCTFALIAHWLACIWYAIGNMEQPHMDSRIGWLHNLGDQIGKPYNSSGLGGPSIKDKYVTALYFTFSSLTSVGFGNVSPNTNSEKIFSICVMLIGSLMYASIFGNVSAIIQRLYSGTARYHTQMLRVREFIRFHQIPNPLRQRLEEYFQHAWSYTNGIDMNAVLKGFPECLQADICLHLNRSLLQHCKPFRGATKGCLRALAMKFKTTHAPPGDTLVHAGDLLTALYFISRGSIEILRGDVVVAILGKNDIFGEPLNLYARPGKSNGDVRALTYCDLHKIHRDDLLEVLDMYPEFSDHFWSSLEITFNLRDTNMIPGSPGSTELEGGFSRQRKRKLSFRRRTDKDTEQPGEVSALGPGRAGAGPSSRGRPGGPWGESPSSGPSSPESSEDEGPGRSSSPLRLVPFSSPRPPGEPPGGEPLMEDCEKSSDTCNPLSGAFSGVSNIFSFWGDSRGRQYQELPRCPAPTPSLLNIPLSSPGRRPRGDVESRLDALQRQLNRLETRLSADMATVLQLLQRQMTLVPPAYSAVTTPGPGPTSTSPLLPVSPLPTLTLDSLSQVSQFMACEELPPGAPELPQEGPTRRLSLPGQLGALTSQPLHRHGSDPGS
Norepinephrine Transporter, sequence (P23975 whole entry, species assumed): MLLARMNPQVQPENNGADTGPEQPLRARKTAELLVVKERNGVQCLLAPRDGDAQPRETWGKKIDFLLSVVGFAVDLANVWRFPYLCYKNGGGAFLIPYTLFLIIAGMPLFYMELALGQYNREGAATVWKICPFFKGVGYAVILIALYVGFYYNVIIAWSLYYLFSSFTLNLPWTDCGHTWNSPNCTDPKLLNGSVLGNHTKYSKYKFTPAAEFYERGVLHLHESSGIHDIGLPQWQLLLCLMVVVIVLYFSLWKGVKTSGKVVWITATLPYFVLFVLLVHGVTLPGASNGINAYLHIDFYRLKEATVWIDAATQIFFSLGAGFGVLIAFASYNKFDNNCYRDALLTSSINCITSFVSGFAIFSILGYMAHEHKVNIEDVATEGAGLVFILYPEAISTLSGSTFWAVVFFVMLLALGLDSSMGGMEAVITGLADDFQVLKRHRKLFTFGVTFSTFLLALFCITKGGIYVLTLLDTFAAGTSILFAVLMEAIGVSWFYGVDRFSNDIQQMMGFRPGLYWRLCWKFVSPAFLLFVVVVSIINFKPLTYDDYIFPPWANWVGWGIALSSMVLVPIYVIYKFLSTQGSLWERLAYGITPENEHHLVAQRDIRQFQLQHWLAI

C[N+]1(C)CCC(OC(=O)C(c2ccccc2)c2ccccc2)CC1 [4-DAMP methiodide]
Ki [1]: 0.27 nM | Ki [2]: 37.5 nM

CCN(CC)CC1CCCCN1CC(=O)N1c2ccccc2C(=O)Nc2cccnc21 (stereo not drawn) [AF-DX 116]
Ki [3]: 63 nM

O=C(O)CCN1CCC(=C2c3ccccc3COc3ccccc32)CC1 [Compound 8a]
Average Bout-Length (male Wistar rats): 12.2 min | Maximum Bout Length (male Wistar rats): 28.9 min | NREM Accum. (male Wistar rats): 65.8 min | NREM Peak (%/hr) (male Wistar rats): 75.5 %/hr | Onset (male Wistar rats): 65 min | Percent Inhibition, Norepinephrine Transporter [4]: −3.9% | Percent Inhibition, Histamine, H2 (Histamine, H2): 33.4% | Percent Inhibition, Muscarinic, M1 (Human Recombinant) [5]: 3.3% | Percent Inhibition, HERG [6]: 4%

CN(C)CCC=C1c2ccccc2COc2ccccc21 [Doxepin, doxepin HCl, reference compound]
Percent Inhibition, Histamine, H2 (Histamine, H2): 74.7% | Percent Inhibition, Muscarinic, M2 (Human Recombinant) [7]: 74.0% | Percent Inhibition, HERG [6]: 23%**
